System: HaCaT human keratinocytes
Assay: Affymetrix GeneChip microarray, transcriptional response to β-carotene and/or UVA
Assay type: cell-based
Conditions: β-carotene 1.5 μM
Experimental: The cell culture experiments were carried out as described. Briefly, a subclone of passage 65 HaCaT keratinocytes, selected for differentiation capacity, was used at passages 16 to 23 after subcloning. 2×10^5 cells were seeded per 60 millimeter dish. Starting the following day, the cells were pretreated for 2 days with β-carotene at 1.5 μM, a typical concentration in human plasma after moderate dietary supplementation)
β-carotene-containing medium was prepared as follows. Fresh all-E-β-carotene (DSM Nutritional Products, Kaiseraugst, Switzerland) stock solution in THF (containing 0.025% BHT; Fluka Chemie A G, Switzerland) was diluted 1:2 with ethanol and added to cell culture medium to a final concentration of 1.5 μM β-carotene. The solvent concentration in the medium was 0.5% for all treatments. β-carotene-containing medium was prepared fresh for the daily medium changes.
On day 3 of the experiment, the cells were irradiated with a Hönle sun lamp Sol 500 (270 kJ/m^2; Dr. Hönle, Germany).
Five independent, factorially designed cell irradiation experiments were analyzed by microarray hybridization. For each experiment, one chip was hybridized per treatment condition. GeneChip® analysis was done as described in [132], which is incorporated by reference, as if recited in full herein. Gene regulation by β-carotene and/or UVA was calculated relative to placebo.
Changes in gene expression were included in further analysis only if the change factor was […], and if unpaired t-tests yielded p values≦0.05. Upregulations by a […] are labeled bold, downregulations by a change factor of […] are labeled bold italics. (Table 1) To identify the pathways affected by the treatments functional information on the genes was retrieved from public literature databases.

CC1=C(/C=C/C(C)=C/C=C/C(C)=C/C=C/C=C(C)/C=C/C=C(C)/C=C/C2=C(C)CCCC2(C)C)C(C)(C)CCC1 [β-carotene, All-E-β-carotene]
UVA induction of MMP-10, microarray (5 hours after UVA, UVA alone 4.6 fold): 3.2 fold | 5-aminolevulinate synthase (Y00451) change factor (unirradiated): 0.08 | AAC11 (U83857) change factor (unirradiated): −0.6 | AP-2α (M36711) change factor (unirradiated): −0.02 | ATF4; activating transcription factor 4 (AL022312) change factor (unirradiated): 0.11 | BAXγ (L22475) change factor (unirradiated): 0.8 | BAXδ (U19599) change factor (unirradiated): 0.6 | BMP2a; bone morphogenetic protein 2a (bmp-2a) (M22489) change factor (unirradiated): −1.2 | BPAG1; bullous pemphigoid antigen (M69225) change factor (unirradiated): −0.5 | BUB1; mitotic checkpoint kinase (AF053305) change factor (unirradiated): −0.5 | C-FOS (V01512) change factor (unirradiated): −0.14 | C-FOS (V01512, second entry) change factor (unirradiated): −0.16 | C-JUN (J04111) change factor (unirradiated): −0.06 | C/EBPβ; NF-IL6 (X52560) change factor (unirradiated): −0.28 | C/EBPγ (U20240) change factor (unirradiated): −0.09 | C/EBPδ; NF-IL6-β (M83667) change factor (unirradiated): 0.04 | CDK activating kinase (X77743) change factor (unirradiated): −0.01 | CDK-inhibitor p57KIP2 (KIP2) mrna (U22398) change factor (unirradiated): −0.22 | CENP-A; centromere protein-A (U14518) change factor (unirradiated): −0.13 | CENP-E; centromere protein-E (Z15005) change factor (unirradiated): −0.37 | CENP-F; mitosin (U30872) change factor (unirradiated): −0.42 | CEP110; centriole associated protein (AF083322) change factor (unirradiated): 0.15 | CIP2; CDKN3 (L25876) change factor (unirradiated): −0.18 | CLARP; CFLAR, alternatively spliced (AF005775) change factor (unirradiated): −0.09 | COUP-TF II; ARP1; apoA1 regulatory protein (M64497) change factor (unirradiated): 0.33 | COX-2, cyclooxygenase-2 (U04636) change factor (unirradiated): −1.2 | CRADD; death domain containing protein (U84388) change factor (unirradiated): −0.25 | DKK-1; dickkopf-1 (AB020315) change factor (unirradiated): −0.3 | DNA ligase III (X84740) change factor (unirradiated): −0.5 | DNA polymerase α-subunit (X06745) change factor (unirradiated): −0.43 | DNA primase (subunit p58) (X74331) change factor (unirradiated): −0.16 | DNA-PK, catalytic subunit (U47077) change factor (unirradiated): −0.7 | DSC2; desmocollin type 2a and 2b (X56807) change factor (unirradiated): −1.1 | DUSP5 (U15932) change factor (unirradiated): −0.15 | DUSP7 (X93921) change factor (unirradiated): −0.46 | EGFR; precursor of epidermal growth factor receptor (X00588) change factor (unirradiated): −0.6 | ENDOGL-2 (AB020735) change factor (unirradiated): 0.8 | ERBB3 precursor; similar to (H06628) change factor (unirradiated): 0 | ERCC5; excision repair protein (L20046) change factor (unirradiated): −0.48 | ERF-2 (X78992) change factor (unirradiated): 0.31 | FGFR2; FGF receptor 2 (M87770) change factor (unirradiated): 0.08 | FGFR3; FGF receptor (M64347) change factor (unirradiated): −1.1 | FRA-1 (X16707) change factor (unirradiated): 0.14 | FRA-2 (X16706) change factor (unirradiated): −0.7 | GADD34 (U83981) change factor (unirradiated): −0.11 | GADD153 (S62138) change factor (unirradiated): −0.45 | GDF-1; growth/differentiation factor 1 (gdf-1) (M62302) change factor (unirradiated): −0.8 | GEM (U10550) change factor (unirradiated): −2.6 | HB-EGF; heparin-binding egf-like growth factor (M60278) change factor (unirradiated): 0.33 | HER3; epidermal growth factor receptor (her3) (M34309) change factor (unirradiated): −0.28 | HER3; epidermal growth factor receptor (her3) (M34309, second entry) change factor (unirradiated): −0.6 | HM74; PAR1-related (D10923) change factor (unirradiated): 0.18 | HOXA7 (AJj005814) change factor (unirradiated): −0.43 | HOXC6 (S82986) change factor (unirradiated): −0.07 | HOXD4 (X59373) change factor (unirradiated): −0.5 | ID1 (X77956) change factor (unirradiated): −0.01 | ID1 (X77956, second entry) change factor (unirradiated): −0.11 | ID3; HEIR1 (AL021154) change factor (unirradiated): −0.43 | ID-2H (D13891) change factor (unirradiated): −0.7 | ID-4 (AL022726) change factor (unirradiated): −0.08 | IEX-1 (S81914) change factor (unirradiated): −0.08 | IFIT1; IFI56 (M24594) change factor (unirradiated): 0 | IFIT1; IFI56 (M24594, second entry) change factor (unirradiated): 0.05 | IFIT2; ISG-54K (M14660) change factor (unirradiated): 0.18 | IFIT2; ISG-54K (M14660, second entry) change factor (unirradiated): −0.21 | IFIT4; IFI60; cig5; RIGG (AF026941) change factor (unirradiated): −0.23 | IGF-BP 3; insulin-like growth factor-binding protein-3 gene (M35878) change factor (unirradiated): 0.29 | IGF-BP 3; insulin-like growth factor-binding protein-3 gene (M35878, second entry) change factor (unirradiated): 0.22 | IL6; Interleukin 6; IFNβα2a (X04430) change factor (unirradiated): 0.6 | IL18; IGIF (IFNγ inducing factor) (D49950) change factor (unirradiated): −0.8 | ILK; integrin-linked kinase (U40282) change factor (unirradiated): −0.23 | IRF-1; interferon regulatory factor 1 (L05072) change factor (unirradiated): 0.16 | IRF-7b; interferon regulatory factor 7b (U53831) change factor (unirradiated): 0.16 | IRF-9; p48; ISGF3γ (M97935) change factor (unirradiated): −0.18 | JUNB (M29039) change factor (unirradiated): −0.38 | JUNB (X51345) change factor (unirradiated): −0.5 | JUND (X56681) change factor (unirradiated): 0.6 | JUND (X56681, second entry) change factor (unirradiated): 0.01 | JUND (X56681, third entry) change factor (unirradiated): 0 | K-RAS (M54968) change factor (unirradiated): −0.6 | KINESIN-LIKE 2; HSET (AL021366) change factor (unirradiated): −0.34 | KINESIN-LIKE 2; HSET (D14678) change factor (unirradiated): −0.04 | KINESIN-LIKE 2; HSET (D14678, second entry) change factor (unirradiated): 0.03 | KINESIN-LIKE 5; KNSL5; MKLP-1; mitotic kinesin-like protein-1 (X67155) change factor (unirradiated): −0.15 | KINESIN-LIKE 6; KNSL6; MCAK; mitotic centromere-associated kinesin (U63743) change factor (unirradiated): −0.15 | KINESIN_LIKE 1; KNSL1; HKSP; EG5 (U37426) change factor (unirradiated): −0.04 | KLF4; EZF (epithelial Zn finger) (U70663) change factor (unirradiated): −0.17 | KRS-2; stress responsive serine/threonine protein kinase (U60207) change factor (unirradiated): −0.8 | KU (p70/p80) (M30938) change factor (unirradiated): −0.18 | LIM kinase 2 (limk-2) (D45906) change factor (unirradiated): −0.3 | Lekti (AJ228139) change factor (unirradiated): 0.48 | MAD3L; mitotic checkpoint kinase (AF053306) change factor (unirradiated): −0.18 | MAF-F (AL021977) change factor (unirradiated): −0.26 | MAP kinase phosphatase (mkp-2) (U48807) change factor (unirradiated): 0 | MAPK9; JNK2 (U09759) change factor (unirradiated): −0.36 | MAPK14; p38; csaids binding protein (csbp1) (L35263) change factor (unirradiated): −0.38 | MAPKK3b; MKK3b (D87116) change factor (unirradiated): −0.06 | MAPKK MEK5b (U71087) change factor (unirradiated): −0.16 | MAPKKK5; ASK1 (U67156) change factor (unirradiated): −0.06 | MEIS2 (AF017418) change factor (unirradiated): 0.26 | MMP10 (X07820) change factor (unirradiated): −1.3 | MMP-1 (M13509) change factor (unirradiated): −1.61 | MMP-3 (X05232) change factor (unirradiated): −0.46
